Reference: publication PMC10584170, “Machine learning-based phenotypic imaging to characterise the targetable biology of Plasmodium falciparum male gametocytes for the development of transmission-blocking antimalarials” (PLOS Pathogens, 2023)

Experiments:
[1] = test system: P. falciparum male gametocytes; experiment: P. falciparum Dual Gamete Formation Assay (PfDGFA), male readout (exflagellation); assay type: cell-based, Plasmodium falciparum NF54; conditions: for Average inhibition male (%): average of replicates; for % inhibition male (individual replicates) R1: replicate R1; for % inhibition male (individual replicates) R3: replicate R3; for % inhibition male (individual replicates) R4: replicate R4; for Activity: hit = >50% inhibition in male or female readout in at least 3 replicates, 0 = no class assigned
In short: (§1)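 Read-outs are automated image counts of exflagellation centres (brightfield, 10 frames over 1 s) and Pfs25-positive female gametes (Cy3 fluorescence).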

[2] = test system: P. falciparum female gametocytes; experiment: P. falciparum Dual Gamete Formation Assay (PfDGFA), female readout (Pfs25-positive female gametes); assay type: cell-based, Plasmodium falciparum NF54; conditions: for Average inhibition female (%): average of replicates; for % inhibition female (individual replicates) R1: replicate R1; for % inhibition female (individual replicates) R3: replicate R3; for % inhibition female (individual replicates) R4: replicate R4
In short: as §1

[3] = PfDGFA at 2µM, 24h preincubation with gametocytes
[4] = number of replicates with >50% inhibition in the male readout, 2µM
[5] = number of replicates with >50% inhibition in the female readout, 2µM
[6] = 2µM, 24h preincubation with gametocytes prior to induction of gametogenesis
[7] = 2µM, 24h preincubation, number of replicates with >50% inhibition in the male readout
[8] = 2µM, 24h preincubation, number of replicates with >50% inhibition in the female readout
[9] = 2µM, 24h preincubation, hits selected on >50% inhibition in the male readout across replicates
[10] = PfDGFA at 2µM, 24h preincubation
[11] = 2µM, 24h preincubation, hits selected on >50% inhibition in the female readout across replicates
[12] = PfDGFA at 2µM, 24h preincubation with gametocytes prior to induction of gametogenesis

| SMILES | Average inhibition male (%) [1, 6] [%] | % inhibition male (individual replicates) R1 [1, 6] [%] | % inhibition male (individual replicates) R4 [1, 6] [%] | Average inhibition female (%) [2, 6] [%] | % inhibition female (individual replicates) R1 [2, 6] [%] | % inhibition female (individual replicates) R3 [2, 6] [%] | % inhibition female (individual replicates) R4 [2, 6] [%] | HitlevelM [1, 9] | Activity [1, 10] | HitlevelF [2, 11] | % inhibition male (individual replicates) R3 [1, 6] [%] | further results |
| --- | --- | --- | --- | --- | --- | --- | --- | --- | --- | --- | --- | --- |
| COc1ccc(CNC2CCN(C)CC2)cc1-c1ccc(S(=O)(=O)NCc2ccccc2)c(C)c1.O=C(O)C(F)(F)F [TCMDC-132480] |  |  |  |  |  |  |  |  |  |  |  | Average inhibition male (%) [1, 3]: 78.0%; % inhibition male (individual replicates) R1 [1, 3]: 73.4%; % inhibition male (individual replicates) R3 [1, 3]: 67.7%; % inhibition male (individual replicates) R4 [1, 3]: 91.6%; HitlevelM [1, 4]: 4; Average inhibition female (%) [2, 3]: 36.3%; % inhibition female (individual replicates) R1 [2, 3]: 30.7%; % inhibition female (individual replicates) R3 [2, 3]: 36.3%; % inhibition female (individual replicates) R4 [2, 3]: 41.6%; HitlevelF [2, 5]: 0 |
| CCS(=O)(=O)c1ccc(-c2cnc3[nH]cc(-c4ccc(N)cc4)c3c2)cc1 [TCMDC-132582] | 35.5 | 70.7 | -32.7 | 24.2 | 25.6 | 29.8 | 22.2 |  |  |  |  | HitlevelM [1, 7]: 2; HitlevelF [2, 8]: 0 |
| Cc1cccc2nc(-c3ccc(-c4cccc(CNC5CCN(C)CC5)c4)s3)[nH]c12.O=C(O)C(F)(F)F [TCMDC-132736] | 63.8 | 48.5 | 67.2 | 18.0 | 17.1 | 23.2 | 22.3 | 2 | 0 | 0 |  |  |
| CN(CCN)Cc1ccc(-c2ccc(-c3nc4cc(C(F)(F)F)ccc4[nH]3)s2)cc1.O=C(O)C(F)(F)F [TCMDC-132821] | -7.8 | -14.8 | -7.6 | 8.7 | 4.7 | 20.4 | 7.1 | 0 | 0 | 0 |  |  |
| CNCCNCc1ccc(-c2ccc(-c3nc4cc(F)ccc4[nH]3)s2)cc1.O=C(O)C(F)(F)F [TCMDC-132829] |  |  |  |  |  |  |  |  |  |  |  | Average inhibition male (%) [1, 3]: 66.0%; % inhibition male (individual replicates) R1 [1, 3]: 54.3%; % inhibition male (individual replicates) R4 [1, 3]: 78.8%; HitlevelM [1, 4]: 3; Average inhibition female (%) [2, 3]: 12.3%; % inhibition female (individual replicates) R1 [2, 3]: 11.4%; % inhibition female (individual replicates) R3 [2, 3]: 10.0%; % inhibition female (individual replicates) R4 [2, 3]: 9.0%; HitlevelF [2, 5]: 0 |
| CNCCNCc1cccc(-c2ccc(-c3nc4cc(C(F)(F)F)ccc4[nH]3)s2)c1.O=C(O)C(F)(F)F [TCMDC-132830] | 36.6 | 35.0 | 60.2 | 26.5 | 19.8 | 8.2 | 49.8 |  |  |  | 16.5 | HitlevelM [1, 7]: 1; HitlevelF [2, 8]: 0 |
| CNCCNCc1ccc(-c2ccc(-c3nc4cc(C(F)(F)F)ccc4[nH]3)cc2)cc1.O=C(O)C(F)(F)F [TCMDC-132833] | 23.6 | 9.5 | 50.2 | 17.0 | 21.1 | 25.6 | 19.1 | 1 | 0 | 0 | 12.3 |  |
| CNCCNCc1cccc(-c2ccc(-c3nc4cc(C(F)(F)F)ccc4[nH]3)cc2)c1.O=C(O)C(F)(F)F [TCMDC-132834] | 47.7 | 40.3 | 68.9 | 13.1 | 23.3 | 8.2 | 10.1 | 2 | 0 | 0 | 3.4 |  |
| CNCCNCc1ccc(-c2cccc(-c3nc4cc(F)ccc4[nH]3)c2)cc1.O=C(O)C(F)(F)F [TCMDC-132836] |  |  |  |  |  |  |  |  |  |  |  | % inhibition male (individual replicates) R1 [1, 12]: -5.6%; % inhibition male (individual replicates) R4 [1, 12]: -19.2%; Average inhibition male (%) [1, 10]: -13.9%; % inhibition female (individual replicates) R1 [2, 12]: -0.65%; % inhibition female (individual replicates) R3 [2, 12]: 8.4%; % inhibition female (individual replicates) R4 [2, 12]: 2.6%; Average inhibition female (%) [2, 10]: 2.2% |
| O=C(O)C(F)(F)F.c1cc(CNCCN2CCNCC2)cc(-c2cccc(-c3nc4ccccc4[nH]3)c2)c1 [TCMDC-132859] | 12.0 | 10.9 | 24.9 | 17.2 | 18.5 | -13.9 | 47.2 | 0 | 0 | 0 | -9.7 |  |
| Fc1ccc2[nH]c(-c3cccc(-c4cccc(CNCCN5CCNCC5)c4)c3)nc2c1.O=C(O)C(F)(F)F [TCMDC-132860] |  |  |  |  |  |  |  |  |  |  |  | Average inhibition male (%) [1, 3]: 74.7%; % inhibition male (individual replicates) R1 [1, 3]: 80.2%; % inhibition male (individual replicates) R3 [1, 3]: 48.0%; % inhibition male (individual replicates) R4 [1, 3]: 89.6%; HitlevelM [1, 4]: 3; Average inhibition female (%) [2, 3]: -9.5%; % inhibition female (individual replicates) R1 [2, 3]: 8.6%; % inhibition female (individual replicates) R3 [2, 3]: -31.9%; % inhibition female (individual replicates) R4 [2, 3]: -13.7%; HitlevelF [2, 5]: 0 |
| O=C(O)C(F)(F)F.c1cc(CNCCN2CCNCC2)cc(-c2ccc(-c3nc4ccccc4[nH]3)cc2)c1 [TCMDC-132861] |  |  |  |  |  |  |  |  |  |  |  | % inhibition male (individual replicates) R1 [1, 12]: -18.7%; % inhibition male (individual replicates) R4 [1, 12]: -15.3%; Average inhibition male (%) [1, 10]: -11.2%; % inhibition female (individual replicates) R1 [2, 12]: -3.1%; % inhibition female (individual replicates) R3 [2, 12]: -9.9%; % inhibition female (individual replicates) R4 [2, 12]: 9.1%; Average inhibition female (%) [2, 10]: 1.2% |
| FC(F)(F)c1ccc2[nH]c(-c3ccc(-c4ccc(CNCCN5CCNCC5)cc4)s3)nc2c1.O=C(O)C(F)(F)F [TCMDC-132862] | 44.8 | 46.6 | 89.1 | 20.7 | 21.1 | 13.2 | 20.9 |  |  |  | 56.6 | HitlevelM [1, 7]: 2; HitlevelF [2, 8]: 0 |
| Fc1ccc2[nH]c(-c3cccc(-c4ccc(CNCCN5CCNCC5)cc4)c3)nc2c1.O=C(O)C(F)(F)F [TCMDC-132863] | 43.0 | 23.0 | 70.2 | 14.3 | 16.6 | -21.5 | 42.6 | 2 | 0 | 0 | 12.3 |  |
